{
  "source": "patent US20090298938A1",
  "about": "“USE OF SEMI SYNTHETIC ANALOGUES OF BOSWELLIC ACIDS FOR ANTICANCER ACTIVITY” (COUNCIL OF SCIENTIFIC & INDUSTRIAL RESEARCH, priority 2008, published 2009)",
  "key": {"[1]": {"tested_on": "caspase-3 in HL-60 cells", "test": "Caspase-3 activation, colorimetric, HL-60", "type": "cell-based, human", "description": "(§1) FIGS. 8A-8B. Caspase activation in HL-60 cells by boswellic acid analogs. FIG. 8A depicts the results of a colorimetric evaluation of caspase-3 activation in HL-60 cells and Molt-4 cells. Cells were treated with a compound designated “c” (formula 1 compound wherein R3=COCH2CH2CH3, […] and R4+R5=O) at concentrations indicated for 6 hours. Caspase-3 inhibitor (DEVD-fmk) was added 30 min prior to the addition of caspase-3 substrate (DEVD-pNA) to the lysate. Data are mean of triplicate determinations with coefficients of variation less than 10%. […] Caspase-9 inhibitor LEHD-CHO was added 30 min prior to the addition of caspase-9 substrate to validate the specificity of caspase-9. Caspase-9 activity was measured fluorometrically. Data are a mean of triplicate determinations with a coefficient of variation of less than 10%. Caspases are important cysteine-proteases that are involved in the cleavage of DNA specifically producing 180 bp DNA fragments. The enzymes act through different signaling pathways. […] Caspase-9 activity was determined fluorometrically and caspase-3 colorimetrically using kits and the instruction provided by the manufacturer (BD pharmingen, USA). Caspase-3 activity was determined in both Molt-4 and HL-60 leukemia cells while caspase-9 was determined in HL-60 cells."}, "[2]": {"tested_on": "HL-60 cells", "test": "Reduced glutathione content, fluorimetric", "type": "cell-based, human", "settings": "HL-60, 6 hr", "description": "FIG. 7. Modulation of reduced glutathione contents in HL-60 cells by boswellic acid analogs. GSH content was measured in HL-60 cells as described in the Examples section, using treated and untreated groups of about 3×10^6 cells per well and 3 mL of RPMI media. Cells were treated with buthionine sulfoxime (BSO), N-acetyl cysteine (NAC), a compound designated “c” (formula 1 compound wherein R3=COCH2CH2CH3, […] and R4+R5=O), and NAC+the compound “c”. Treatment concentrations were as indicated. […] The depleted GSH stores were restored by an anti-oxidant n-acetyl cysteine. Depletion of GSH content is an important indicator of predisposition conditions leading to cellular injury. Loss of mitochondrial functions as a result of GSH depletion may affect the energy status of the cells and therefore, is critical event in the induction of cell injury. GSH in general offers protection by scavenging reactive oxygen species and electrophiles formed within the cells. The GSH content of cells recovered back to normal or NAC control when cells were treated with sulfhydral groups antioxidant, N-acetyl cysteine (NAC). […] Reduced glutathione content was determined in 3×10^6 HL-60 cells/well/3 mL medium in a 6-well plate after incubation with SS-145 for 6 hr. Cells were washed and the reduced glutathione contents were extracted and determined using a standard fluorimetric method [[…] et al., 1976]. […]"}, "[3]": {"tested_on": "caspase-9 in HL-60 cells", "test": "Caspase-9 activation, fluorometric, HL-60", "type": "cell-based, human", "settings": "HL-60, 50 μM, 6 hours", "description": "as §1"}, "[4]": {"tested_on": "caspase-3 in Molt-4 cells", "test": "Caspase-3 activation, colorimetric, Molt-4", "type": "cell-based, human", "settings": "6 hr", "description": "as §1"}, "[5]": {"tested_on": "HL-60 cells", "test": "Inhibition of cell proliferation, MTT assay", "type": "cell-based, human", "settings": "HL-60, 48 hours", "description": "FIGS. 1A-1B. FIG. 1A depicts the main triterpenoic acid constituents of the gum exudates from Boswellia serrata, the source of boswellic acids, represented by boswellic acid, acetyl boswellic acid, 11-keto-boswellic acids, acetyl-11-keto-boswellic acid. […] Cell proliferation analysis was performed in HL-60 cells using the MTT method described in the Examples section. Cells were incubated with each formula 1 analog for 48 hours at indicated concentration and thereafter, the mitochondiral competence of MTT reduction as an index of cell viability was determined. The optical density (OD) of the untreated control was taken as 100% viability. […] This analog, as a prototype, was selected for detailed investigations. Where a=compound of formula 1, R3=COCH2CH2CH3, R1=H, R4=R5=H, b=compound of formula 1, R3=COCH2CH3, R1=H, X=H2, c=compound of formula 1, R3=COCH2CH2CH3, R1=H, R4+R5=O, d=compound of formula 1, R1=H, R3=COCH2CH3, R4=R5=H, e=compound of formula 1, R3=COCH2CH2CH3, R1=H, R4=R5=H, f=β-boswellic acid\nHuman leukemia cells HL-60 were grown in suspension in 96-well culture plate and were incubated with different concentrations of the test analogs for 48 hr. The cells were then incubated with MTT and the MTT-formazon formed is eluted with DMSO, and OD measured in ELISA Reader [Shashi et al., 2006]. The intensity of the color formed in the untreated control wells relates to 100% cell growth. […]"}, "[6]": {"tested_on": "Ehrlich Ascitic Carcinoma solid tumor", "test": "Ehrlich ascitic tumor (solid) growth inhibition in mice", "type": "in vivo, Swiss albino mice", "settings": "9 days, evaluated day 13", "description": "FIG. 9. Tumor growth inhibition by boswellic acid analogs. Mice treated intraperitoneally with a compound (designated “c”) of formula 1, wherein R3=COCH2CH2CH3, R1=H, R4+R5=O, have shown 22% tumor growth inhibition at a dose of about 50 mg/kg of body weight, and 41% tumor growth inhibition at a dose of 100 mg/kg of body weight.\nSwiss albino mice of 6-8 weeks, weighing 18-23 g of single sex were used. For the initiation of experiment, 1×10^7 cells of EAC (Ehrlich Ascitic Carcinoma) cells were transplanted intramuscularly (i.m.) in 32 mice for the development of solid tumors. The day of tumor transplantation was assigned as day 0. Next day (day-1) animals were randomly selected and divided into four groups having equal number of mice in each group of similar body wt. Groups I and II were treated with compound of formula 1 where R3=COCH2CH2CH3, R1=H, R4+R5=O at the dose of 50 mg/kg b, wt and 100 mg/kg b. wt. intraperitoneally, respectively. Group III received 0.2 ml of 0.85% normal saline and served as normal control while group IV serving as positive control was treated with 5-FU (22 mg/kg b. wt.) intraperitoneally. The total duration of treatment was of 9 days. The evaluation of effect of treatment on tumor was done on 13th day. Ehrlich ascites cells (1×10^7) were injected intramuscularly in the right thigh muscles and on the following day animals started receiving treatment intraperitoneally in 0.5% Tween-20 daily at the indicated doses for 9 days. The growth of tumor and the efficacy of compound of formula 1, where R3=COCH2CH2CH3, R1=H, R4+R5=O in inhibiting tumor growth were evaluated on day 13 in terms of the weight of the tumor in treated and control groups count. The determination of solid tumor growth inhibition against EAT was calculated as percent tumor growth regression according to the following: […]"}},
  "data": [
    {"smiles": "CCCC(=O)OC1CCC2(C)C(CCC3(C)C2C(=O)C=C2C4C(C)C(C)CCC4(C)CCC23C)C1(C)C(=O)O", "note": "(centres unmarked) [R3=COCH2CH2CH3, R1=H, R4+R5=O]", "values": [
      {"measurement": "caspase-3 stimulation", "setting": "[1]; 50 μM", "result": "about 50%"},
      {"measurement": "caspase-3 activation", "setting": "[1]; HL-60 cells, 6 hr", "result": "about 50%"},
      {"measurement": "reduced glutathione (GSH) content", "setting": "[2]", "result": "strongly depleted GSH content"},
      {"measurement": "caspase-9 activity stimulation", "setting": "[3]", "result": "4-5 fold"},
      {"measurement": "caspase-3 activation", "setting": "[4]", "result": "about 50%"},
      {"measurement": "effect on cell proliferation compared to other analogs", "setting": "[5]", "result": "marginally stronger effect compared to other analogs"},
      {"measurement": "tumor growth inhibition", "setting": "[6]; 50 mg/kg intraperitoneally", "result": 22, "unit": "%"},
      {"measurement": "tumor growth inhibition", "setting": "[6]; 100 mg/kg intraperitoneally", "result": 41, "unit": "%"}
    ]}
  ]
}
